{"source": "patent US20210032257A1", "about": "“(E)-1-(4-(DIMETHYLAMINO)BUT-2-ENOYL)PYRROLIDIN-3-YL 4-((3-ISOPROPYL-5-METHYLPYRAZOLO[1,5-A]PYRIMIDIN-7-YL)AMINO)PIPERIDINE-1-CARBOXYLATE FOR INHIBITING CDK7” (Eli Lilly and Company, priority 2017, published 2021)", "experiment_in_all_cases": "Biomarker study proliferation (CellTiter-Glo)", "assay_type_in_all_cases": "cell-based", "key": {"[1]": {"system": "SKUT1", "outline": "(§1)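 Cells seeded at 5000/well, incubated overnight at 37 °C, 5% CO2, then treated with 10-point 1:3 dilutions from a 10 mM DMSO working solution. After 7 days, ATP luminescence was read by CellTiter-Glo. Classed insensitive (IC50≥1 μM), cytostatic (IC50<1 μM, inhibition <70%) or cytotoxic (IC50<1 μM, inhibition ≥70%).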"}, "[2]": {"system": "OCUM1", "outline": "as §1"}, "[3]": {"system": "TOV21G", "outline": "as §1"}, "[4]": {"system": "KURAMOCHI", "outline": "as §1"}, "[5]": {"system": "HS294T", "outline": "as §1"}, "[6]": {"system": "A375", "outline": "as §1"}, "[7]": {"system": "SW1271", "outline": "as §1"}, "[8]": {"system": "DMS273", "outline": "as §1"}, "[9]": {"system": "HCC827", "outline": "as §1"}, "[10]": {"system": "SNU5", "outline": "as §1"}, "[11]": {"system": "MDAPCA2B", "outline": "as §1"}, "[12]": {"system": "NCIH69", "outline": "as §1"}, "[13]": {"system": "JHH4", "outline": "as §1"}, "[14]": {"system": "TOV112D", "outline": "as §1"}, "[15]": {"system": "HOS", "outline": "as §1"}, "[16]": {"system": "NUGC4", "outline": "as §1"}, "[17]": {"system": "MCF7", "outline": "as §1"}, "[18]": {"system": "MHCC97H", "outline": "as §1"}, "[19]": {"system": "TGW", "outline": "as §1"}, "[20]": {"system": "T47D", "outline": "as §1"}, "[21]": {"details": "Homo sapiens, 168 h, read-out: Anti-proliferation effect IC50"}, "[22]": {"details": "168 h, read-out: Anti-proliferation effect IC50"}}}
{"smiles": "Cc1cc(NC2CCN(C(=O)O[C@H]3CCN(C(=O)/C=C/CN(C)C)C3)CC2)n2ncc(C(C)C)c2n1", "note": "[Example 1, [(3S)-1-[(E)-4-(dimethylamino)but-2-enoyl]pyrrolidin-3-yl] 4-[(3-isopropyl-5-methyl-pyrazolo[1,5-a]pyrimidin-7-yl)amino]piperidine-1-carboxylate]", "values": [{"measurement": "IC50", "setting": "[1]; Homo sapiens, SK-UT-1, 168 h, read-out: Anti-proliferation effect IC50", "result": 41, "unit": "nM"}, {"measurement": "Anti-proliferation effect % Inh.", "setting": "[1]; SKUT1, SOFT TISSUE, 7 days", "result": 89, "unit": "%"}, {"measurement": "Anti-proliferation effect Outcome", "setting": "[1]; SKUT1, SOFT TISSUE, 7 days", "result": "Cytotoxic (cytotoxic (IC50<1 μM and % inhibition ≥70%))"}, {"measurement": "IC50", "setting": "[2]; OCUM1, 168 h, read-out: Anti-proliferation effect IC50", "result": 27, "unit": "nM"}, {"measurement": "Anti-proliferation effect % Inh.", "setting": "[2]; OCUM1, STOMACH, 7 days", "result": 82, "unit": "%"}, {"measurement": "Anti-proliferation effect Outcome", "setting": "[2]; OCUM1, STOMACH, 7 days", "result": "Cytotoxic (cytotoxic (IC50<1 μM and % inhibition ≥70%))"}, {"measurement": "IC50", "setting": "[3]; [21]", "result": 61, "unit": "nM"}, {"measurement": "Anti-proliferation effect % Inh.", "setting": "[3]; OVARY, 7 days", "result": 73, "unit": "%"}, {"measurement": "Anti-proliferation effect Outcome", "setting": "[3]; OVARY, 7 days", "result": "Cytotoxic (cytotoxic (IC50<1 μM and % inhibition ≥70%))"}, {"measurement": "IC50", "setting": "[4]; [22]", "result": 52, "unit": "nM"}, {"measurement": "Anti-proliferation effect % Inh.", "setting": "[4]; KURAMOCHI, OVARY, 7 days", "result": 88, "unit": "%"}, {"measurement": "Anti-proliferation effect Outcome", "setting": "[4]; KURAMOCHI, OVARY, 7 days", "result": "Cytotoxic (cytotoxic (IC50<1 μM and % inhibition ≥70%))"}, {"measurement": "Anti-proliferation effect % Inh.", "setting": "[5]; HS294T, SKIN, 7 days", "result": 84, "unit": "%"}, {"measurement": "Anti-proliferation effect Outcome", "setting": "[5]; HS294T, SKIN, 7 days", "result": "Cytotoxic (cytotoxic (IC50<1 μM and % inhibition ≥70%))"}, {"measurement": "IC50", "setting": "[5]; Homo sapiens, Hs 294T, 168 h, read-out: Anti-proliferation effect IC50", "result": 20, "unit": "nM"}, {"measurement": "Anti-proliferation effect % Inh.", "setting": "[6]; A375, SKIN, 7 days", "result": 86, "unit": "%"}, {"measurement": "Anti-proliferation effect Outcome", "setting": "[6]; A375, SKIN, 7 days", "result": "Cytotoxic (cytotoxic (IC50<1 μM and % inhibition ≥70%))"}, {"measurement": "IC50", "setting": "[6]; Homo sapiens, A-375, 168 h, read-out: Anti-proliferation effect IC50", "result": 55, "unit": "nM"}, {"measurement": "IC50", "setting": "[7]; SW1271, 168 h, read-out: Anti-proliferation effect IC50", "result": 24, "unit": "nM"}, {"measurement": "Anti-proliferation effect % Inh.", "setting": "[7]; SW1271, LUNG, 7 days", "result": 67, "unit": "%"}, {"measurement": "Anti-proliferation effect Outcome", "setting": "[7]; SW1271, LUNG, 7 days", "result": "Cytostatic (cytostatic (IC50<1 μM and % inhibition <70%))"}, {"measurement": "Anti-proliferation effect % Inh.", "setting": "[8]; DMS273, LUNG, 7 days", "result": 80, "unit": "%"}, {"measurement": "Anti-proliferation effect Outcome", "setting": "[8]; DMS273, LUNG, 7 days", "result": "Cytotoxic (cytotoxic (IC50<1 μM and % inhibition ≥70%))"}, {"measurement": "IC50", "setting": "[8]; Homo sapiens, DMS-273, 168 h, read-out: Anti-proliferation effect IC50", "result": 19, "unit": "nM"}, {"measurement": "Anti-proliferation effect % Inh.", "setting": "[9]; HCC827, LUNG, 7 days", "result": 69, "unit": "%"}, {"measurement": "Anti-proliferation effect Outcome", "setting": "[9]; HCC827, LUNG, 7 days", "result": "Cytostatic (cytostatic (IC50<1 μM and % inhibition <70%))"}, {"measurement": "IC50", "setting": "[9]; Homo sapiens, HCC827, 168 h, read-out: Anti-proliferation effect IC50", "result": 55, "unit": "nM"}, {"measurement": "IC50", "setting": "[10]; Homo sapiens, SNU-5, 168 h, read-out: Anti-proliferation effect IC50", "result": 39, "unit": "nM"}, {"measurement": "Anti-proliferation effect % Inh.", "setting": "[10]; SNU5, STOMACH, 7 days", "result": 79, "unit": "%"}, {"measurement": "Anti-proliferation effect Outcome", "setting": "[10]; SNU5, STOMACH, 7 days", "result": "Cytotoxic (cytotoxic (IC50<1 μM and % inhibition ≥70%))"}, {"measurement": "IC50", "setting": "[11]; MDA-PCa-2b, 168 h, read-out: Anti-proliferation effect IC50", "result": 6270, "unit": "nM"}, {"measurement": "Anti-proliferation effect % Inh.", "setting": "[11]; MDAPCA2B, PROSTATE, 7 days", "result": 17, "unit": "%"}, {"measurement": "Anti-proliferation effect Outcome", "setting": "[11]; MDAPCA2B, PROSTATE, 7 days", "result": "Insensitive (insensitive (IC50≥1 μM))"}, {"measurement": "IC50", "setting": "[12]; Homo sapiens, NCI-H69, 168 h, read-out: Anti-proliferation effect IC50", "result": 173, "unit": "nM"}, {"measurement": "Anti-proliferation effect % Inh.", "setting": "[12]; NCIH69, LUNG, 7 days", "result": 68, "unit": "%"}, {"measurement": "Anti-proliferation effect Outcome", "setting": "[12]; NCIH69, LUNG, 7 days", "result": "Cytostatic (cytostatic (IC50<1 μM and % inhibition <70%))"}, {"measurement": "Anti-proliferation effect % Inh.", "setting": "[13]; JHH4, LIVER, 7 days", "result": 65, "unit": "%"}, {"measurement": "Anti-proliferation effect Outcome", "setting": "[13]; JHH4, LIVER, 7 days", "result": "Cytostatic (cytostatic (IC50<1 μM and % inhibition <70%))"}, {"measurement": "IC50", "setting": "[13]; JHH-4, 168 h, read-out: Anti-proliferation effect IC50", "result": 166, "unit": "nM"}, {"measurement": "IC50", "setting": "[14]; [21]", "result": 25, "unit": "nM"}, {"measurement": "Anti-proliferation effect % Inh.", "setting": "[14]; OVARY, 7 days", "result": 81, "unit": "%"}, {"measurement": "Anti-proliferation effect Outcome", "setting": "[14]; OVARY, 7 days", "result": "Cytotoxic (cytotoxic (IC50<1 μM and % inhibition ≥70%))"}, {"measurement": "Anti-proliferation effect % Inh.", "setting": "[15]; BONE, 7 days", "result": 72, "unit": "%"}, {"measurement": "Anti-proliferation effect Outcome", "setting": "[15]; BONE, 7 days", "result": "Cytotoxic (cytotoxic (IC50<1 μM and % inhibition ≥70%))"}, {"measurement": "IC50", "setting": "[15]; [21]", "result": 90, "unit": "nM"}, {"measurement": "IC50", "setting": "[16]; Homo sapiens, NUGC-4, 168 h, read-out: Anti-proliferation effect IC50", "result": 19, "unit": "nM"}, {"measurement": "Anti-proliferation effect % Inh.", "setting": "[16]; NUGC4, STOMACH, 7 days", "result": 83, "unit": "%"}, {"measurement": "Anti-proliferation effect Outcome", "setting": "[16]; NUGC4, STOMACH, 7 days", "result": "Cytotoxic (cytotoxic (IC50<1 μM and % inhibition ≥70%))"}, {"measurement": "IC50", "setting": "[17]; Homo sapiens, MCF7, 168 h, read-out: Anti-proliferation effect IC50", "result": 155, "unit": "nM"}, {"measurement": "Anti-proliferation effect % Inh.", "setting": "[17]; MCF7, BREAST, 7 days", "result": 58, "unit": "%"}, {"measurement": "Anti-proliferation effect Outcome", "setting": "[17]; MCF7, BREAST, 7 days", "result": "Cytostatic (cytostatic (IC50<1 μM and % inhibition <70%))"}, {"measurement": "IC50", "setting": "[18]; [21]", "result": 243, "unit": "nM"}, {"measurement": "Anti-proliferation effect % Inh.", "setting": "[18]; LIVER, 7 days", "result": 59, "unit": "%"}, {"measurement": "Anti-proliferation effect Outcome", "setting": "[18]; LIVER, 7 days", "result": "Cytostatic (cytostatic (IC50<1 μM and % inhibition <70%))"}, {"measurement": "IC50", "setting": "[19]; [22]", "result": 70, "unit": "nM"}, {"measurement": "Anti-proliferation effect % Inh.", "setting": "[19]; TGW, BRAIN, 7 days", "result": 63, "unit": "%"}, {"measurement": "Anti-proliferation effect Outcome", "setting": "[19]; TGW, BRAIN, 7 days", "result": "Cytostatic (cytostatic (IC50<1 μM and % inhibition <70%))"}, {"measurement": "Anti-proliferation effect % Inh.", "setting": "[20]; BREAST, 7 days", "result": 68, "unit": "%"}, {"measurement": "Anti-proliferation effect Outcome", "setting": "[20]; BREAST, 7 days", "result": "Cytostatic (cytostatic (IC50<1 μM and % inhibition <70%))"}, {"measurement": "IC50", "setting": "[20]; [21]", "result": 45, "unit": "nM"}]}
